Molecular target: T1, IRAK4 (Homo sapiens, UniProt Q9NWZ3)
T1 sequence (Q9NWZ3 1-460): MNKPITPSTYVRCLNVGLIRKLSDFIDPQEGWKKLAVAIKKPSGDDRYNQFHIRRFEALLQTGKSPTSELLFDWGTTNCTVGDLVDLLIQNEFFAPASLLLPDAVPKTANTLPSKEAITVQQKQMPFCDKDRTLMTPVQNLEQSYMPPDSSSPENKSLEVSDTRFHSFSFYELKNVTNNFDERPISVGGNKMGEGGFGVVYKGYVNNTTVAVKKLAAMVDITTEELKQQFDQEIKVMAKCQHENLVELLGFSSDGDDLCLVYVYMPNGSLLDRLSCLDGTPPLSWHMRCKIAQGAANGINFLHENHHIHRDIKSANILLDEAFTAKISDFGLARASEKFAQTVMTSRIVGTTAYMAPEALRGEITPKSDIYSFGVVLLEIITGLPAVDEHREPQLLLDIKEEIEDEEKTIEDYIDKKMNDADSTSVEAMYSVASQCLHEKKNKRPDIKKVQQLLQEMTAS
Experiment: IRAK-4 activity inhibition assay (Caliper)
Format: biochemical
Conditions: 37 μM ATP, 3.5 nM IRAK4

| Compound | IC50 [µM] |
| --- | --- |
| CN(C)[C@]1(C)CC[C@@H](Oc2ncnc3sc4c(c23)[C@@H](CC(N)=O)CC4)CC1 [Compound I-155, 2-[(3R)-12-[[4-(dimethylamino)-4-methylcyclohexyl]oxy]-7-thia-9,11-diazatricyclo[6.4.0.0[2,6]]dodeca-1(8),2(6),9,11-tetraen-3-yl]acetamide] | < 5 |
| CN[C@]1(C)CC[C@@H](Oc2ncnc3sc4c(c23)[C@@H](CC(N)=O)CC4)CC1 [Compound I-156, 2-[(3R)-12-[[4-methyl-4-(methylamino)cyclohexyl]oxy]-7-thia-9,11-diazatricyclo[6.4.0.0[2,6]]dodeca-1(8),2(6),9,11-tetraen-3-yl]acetamide] | < 5 |
| CN[C@H]1CC[C@H](Oc2ncnc3sc4c(c23)[C@@H](C[C@H]2NC(=O)NC2=O)CC4)CC1 [Compound I-159, (5R)-5-[[(3R)-12-[[4-(methylamino)cyclohexyl]oxy]-7-thia-9,11-diazatricyclo[6.4.0.0[2,6]]dodeca-1(8),2(6),9,11-tetraen-3-yl]methyl]imidazolidine-2,4-dione] | < 5 |
| CN(C)[C@H]1CC[C@H](Oc2ncnc3sc4c(c23)[C@@H](C[C@H](N)C(N)=O)CC4)CC1 [Compound I-160, (2S)-2-amino-3-[(3R)-12-[[4-(dimethylamino)cyclohexyl]oxy]-7-thia-9,11-diazatricyclo[6.4.0.0[2,6]]dodeca-1(8),2(6),9,11-tetraen-3-yl]propanamide] | < 5 |
| CN[C@H]1CC[C@H](Oc2ncnc3sc4c(c23)[C@@H](CCC(N)=O)CCC4)CC1 [Compound I-162, 3-((R)-4-(((1r,4R)-4-(methylamino)cyclohexyl)oxy)-5,6,7,8-tetrahydrobenzo[4,5]thieno[2,3-d]pyrimidin-5-yl)propanamide] | < 5 |
| CC(=O)N1CCc2sc3ncnc(O[C@H]4CC[C@H](N(C)C)CC4)c3c2C1 [Compound I-167] | < 5 |
| CNC(=O)N1CCc2sc3ncnc(O[C@H]4CC[C@H](N(C)C)CC4)c3c2C1 [Compound I-169, 3-[[4-(dimethylamino)cyclohexyl]oxy]-N-methyl-8-thia-4,6,12-triazatricyclo[7.4.0.0[2,7]]trideca-1(9),2(7),3,5-tetraene-12-carboxamide] | < 5 |
| CN(C)[C@H]1CC[C@H](Oc2ncnc3sc4c(c23)CN(C(=O)CC2CC2)CC4)CC1 [Compound I-170, 2-cyclopropyl-1-(3-[[4-(dimethylamino)cyclohexyl]oxy]-8-thia-4,6,12-triazatricyclo[7.4.0.0̂[2,7]]trideca-1(9),2(7),3,5-tetraen-12-yl)ethan-1-one] | 5 to 20 |
| CC(=O)N1CCc2sc3ncnc(O[C@H]4CC[C@H](N5CCOCC5)CC4)c3c2C1 [Compound I-171, 1-(3-[[4-(morpholin-4-yl)cyclohexyl]oxy]-8-thia-4,6,12-triazatricyclo[7.4.0.0[2,7]]trideca-1(9),2(7),3,5-tetraen-12-yl)ethan-1-one] | 5 to 20 |
| CC(=O)N1CCc2sc3ncnc(N[C@H]4CC[C@H](N5CCOCC5)CC4)c3c2C1 [Compound I-172, 1-(3-[[4-(morpholin-4-yl)cyclohexyl]amino]-8-thia-4,6,12-triazatricyclo[7.4.0.0-[2,7]]trideca-1(9),2(7),3,5-tetraen-12-yl)ethan-1-one] | 5 to 20 |
| CC(O)C[C@@H]1CCc2sc3ncnc(O[C@H]4CC[C@H](N5CCOCC5)CC4)c3c2C1 (stereo partly drawn) [Compound I-182, 1-((R)-4-(((1r,4R)-4-morpholinocyclohexyl)oxy)-5,6,7,8-tetrahydrobenzo[4,5]thieno[2,3-d]pyrimidin-6-yl)propan-2-ol] | < 5 |
| CCC(O)C[C@@H]1CCc2sc3ncnc(O[C@H]4CC[C@H](N5CCOCC5)CC4)c3c2C1 (stereo partly drawn) [Compound I-183, 1-((R)-4-(((1r,4R)-4-morpholinocyclohexyl)oxy)-5,6,7,8-tetrahydrobenzo[4,5]thieno[2,3-d]pyrimidin-6-yl)butan-2-ol] | < 5 |
| CCCOC(=O)N1CCc2sc3ncnc(O[C@H]4CC[C@H](N(C)C)CC4)c3c2C1 [Compound I-184, propyl 3-[[4-(dimethylamino)cyclohexyl]oxy]-8-thia-4,6, 12-triazatricyclo[7.4.0.0[2,7]]trideca-1(9),2(7),3,5-tetraene-12-carboxylate] | < 5 |
| O=S(=O)(CCO)N1CCc2sc3ncnc(N[C@H]4CC[C@H](N5CCOCC5)CC4)c3c2C1 [Compound I-185, 2-(3-[[4-(morpholin-4-yl)cyclohexyl]amino]-8-thia-4,6,12-triazatricyclo[7.4.0.0[2,7]]trideca-1(9),2(7),3,5-tetraene-12-sulfonyl)ethan-1-ol] | < 5 |
| CS(=O)(=O)N1CCc2sc3ncnc(O[C@H]4CC[C@H](N5CCOCC5)CC4)c3c2C1 [Compound I-187, 12-methanesulfonyl-3-[[4-(morpholin-4-yl)cyclohexyl]oxy]-8-thia-4,6, 12-triazatricyclo[7.4.0.0[2,7]]trideca-1(9),2(7),3,5-tetraene] | < 5 |
| CN(C)[C@H]1CC[C@H](Oc2ncnc3sc4c(c23)CN(C(=O)CCCO)CC4)CC1 [Compound I-190, 1-(3-[[4-(dimethylamino)cyclohexyl]oxy]-8-thia-4,6, 12-triazatricyclo[7.4.0.0[2,7]]trideca-1(9),2,4,6-tetraen-12-yl)-4-hydroxybutan-1-one] | 20 to 50 |
| c1nc(O[C@H]2CC[C@H](N3CCOCC3)CC2)c2c3c(sc2n1)CNC3 [Compound I-192, 12-[[4-(morpholin-4-yl)cyclohexyl]oxy]-7-thia-4,9, 11-triazatricyclo[6.4.0.0[2,6]]dodeca-1(12),2(6),8, 10-tetraene] | < 5 |
| CC1(C)Cc2c(sc3ncnc(O[C@H]4CC[C@H](N5CCOCC5)CC4)c23)CO1 [Compound I-193, 12,12-dimethyl-3-[[4-(morpholin-4-yl)cyclohexyl]oxy]-11-oxa-8-thia-4,6-diazatricyclo[7.4.0.0[2,7]]trideca-1(9),2(7),3,5-tetraene] | < 5 |
| CN1Cc2sc3ncnc(O[C@H]4CC[C@H](N5CCOCC5)CC4)c3c2C1 [Compound I-196, 4-methyl-12-[[4-(morpholin-4-yl)cyclohexyl]oxy]-7-thia-4,9,11-triazatricyclo[6.4.0.0[2,6]]dodeca-1(12),2(6),8, 10-tetraene] | 5 to 20 |

Second part, the compound after the results:

| IC50 [µM] | Compound |
| --- | --- |
| 5 to 20 | NC(=O)CC[C@@H]1CCCc2sc3ncnc(O[C@H]4CC[C@H](N)CC4)c3c21 [Compound I-154, 3-((S)-4-(((1r,4S)-4-aminocyclohexyl)oxy)-5,6,7,8-tetrahydrobenzo[4,5]thieno[2,3-d]pyrimidin-5-yl)propanamide] |
| < 5 | NC(=O)C[C@H]1CCc2sc3ncnc(O[C@H]4CC[C@@H](N5CCNC(=O)C5)CC4)c3c21 [Compound I-157, 2-((R)-4-(((1s,4S)-4-(3-oxopiperazin-1-yl)cyclohexyl)oxy)-6,7-dihydro-5H-cyclopenta[4,5]thieno[2,3-d]pyrimidin-5-yl)acetamide] |
| 20 to 50 | NC(=O)C[C@H]1CCc2sc3ncnc(O[C@H]4CC[C@H](N5CCNC(=O)C5)CC4)c3c21 [Compound I-158, 2-((R)-4-(((1r,4R)-4-(3-oxopiperazin-1-yl)cyclohexyl)oxy)-6,7-dihydro-5H-cyclopenta[4,5]thieno[2,3-d]pyrimidin-5-yl)acetamide] |
| 5 to 20 | C[C@]1(N)CC[C@H](Oc2ncnc3sc4c(c23)[C@@H](CC(N)=O)CC4)CC1 [Compound I-161, 2-[(3R)-12-[(4-amino-4-methylcyclohexyl)oxy]-7-thia-9,11-diazatricyclo[6.4.0.0[2,6]]dodeca-1(8),2(6),9,11-tetraen-3-yl]acetamide] |
| < 5 | CN(C)[C@H]1CC[C@H](Oc2ncnc3sc4c(c23)[C@@H](CCC(N)=O)CCC4)CC1 [Compound I-163, 3-((R)-4-(((1r,4R)-4-(dimethylamino)cyclohexyl)oxy)-5,6,7,8-tetrahydrobenzo[4,5]thieno[2,3-d]pyrimidin-5-yl)propanamide] |
| 5 to 20 | CC(=O)N1CCc2sc3ncnc(N[C@H]4CC[C@H](N(C)C)CC4)c3c2C1 [Compound I-173, 1-(3-[[4-(dimethylamino)cyclohexyl]amino]-8-thia-4,6,12-triazatricyclo[7.4.0.0-[2,7]]trideca-1(9),2(7),5-trien-12-yl)ethan-1-one] |
| 5 to 20 | CCS(=O)(=O)N1CCc2sc3ncnc(N[C@H]4CC[C@H](N5CCOCC5)CC4)c3c2C1 [Compound I-181, 12-(ethanesulfonyl)-N-[4-(morpholin-4-yl)cyclohexyl]-8-thia-4,6, 12-triazatricyclo[7.4.0.0[2,7]]trideca-1(9),2(7),3,5-tetraen-3-amine] |
| < 5 | CCCOC(=O)N1CCc2sc3ncnc(N[C@H]4CC[C@H](N5CCOCC5)CC4)c3c2C1 [Compound I-186, propyl 3-[[4-(morpholin-4-yl)cyclohexyl]amino]-8-thia-4,6, 12-triazatricyclo[7.4.0.0[2,7]]trideca-1(9),2(7),3,5-tetraene-12-carboxylate] |
| 5 to 20 | CN(C)[C@H]1CC[C@H](Oc2ncnc3sc4c(c23)CN(C(=O)CCO)CC4)CC1 [Compound I-195, 1-(3-[[4-(dimethylamino)cyclohexyl]oxy]-8-thia-4,6, 12-triazatricyclo[7.4.0.0[2,7]]trideca-1(9),2,4,6-tetraen-12-yl)-3-hydroxypropan-1-one] |
| 5 to 20 | CC(=O)N1CCc2sc3ncnc(O[C@H]4CC[C@H](N)CC4)c3c2C1 [Compound I-197, 1-[3-[(4-aminocyclohexyl)oxy]-8-thia-4,6, 12-triazatricyclo[7.4.0.0[2,7]]trideca-1(9),2,4,6-tetraen-12-yl]ethan-1-one] |

— patent US20160193216A1 (Nimbus Iris, Inc., priority 2012, published 2016)
